# Source: US8846904B2, “Water-soluble porphyrin and process for production thereof” (University of Miyazaki, priority 2009, dated 2014)
# Where two headings read alike, the source gives them in different places.
# Columns and labels:
# [1] = Solubility in water (Cw), saturated aqueous solution, absorption spectrum; assay type: physicochemical
# Protocol: (§1) 10 mg of the obtained PTPP derivative was dispersed in 0.50 mL of water and allowed to stand for 3 days to prepare a saturated aqueous solution. The supernatant of the aqueous solution was collected and diluted with methanol. Thereafter, the absorption spectrum was measured and the solubility in water (Cw) was calculated using the molar absorption coefficient of the PTPP derivative in methanol. In a similar manner to the above, the solubility in dioxane (Co) was also calculated.
# [2] = Solubility in dioxane (Co), absorption spectrum; assay type: physicochemical
# Protocol: as §1
# [3] = tested on: yeast (Saccharomyces cerevisiae); assay: Biocompatibility: concentration of PTPP derivative adsorbed on yeast cells (Cad), microscope absorption spectrophotometry; assay type: cell-based; details: 10 μM of PTPP derivative added to a yeast solution (1.0×10^4 cell/mL); Nd = below the detection limit
# Protocol: Subsequently, the biocompatibility of this PTPP derivative was assessed in the following manner. An aqueous solution of this PTPP derivative (0.5 mL, 50 μm) was added to the cell suspension (1.0 mL; ca. 2.5×10^4 cell/mL) of yeast, and then an aqueous solution of agar (1 wt %; 1.0 mL) was added. A portion of the prepared aqueous solution containing the PTPP derivative (10 μm), yeast (Saccharomyces cerevisiae; ca. 1.0×10^4 cell/mL) and agar (0.4 wt %) was placed on a space (1 cm×1 cm) surrounded by a silicone spacer (thickness 50 μm) put on a glass slide, covered with a cover glass. The glass slide was set on the stage of an optical microscope. Thereafter, appropriate bacterial cells were positioned in the center of the field of view, and the Q-band absorption spectrum of the PTPP derivative near 560 nm was measured. Then, the concentration (Cad) of the PTPP derivative adsorbed on the bacterial cells was calculated from absorption spectrophotometry based on the Lambert-Beer law.
# [4] = Quantum yield of 1O2 production, near infrared emission at 1,270 nm; assay type: physicochemical; details: aqueous PTPP derivative solution (20 μM), laser 558 nm, relative to methylene blue
# From the text: When the photosensitizer “Photofrin” that has been practically used in PDT treatment is used, the quantum yield of ^1O2 is 0.53 (J. Photochem. Photobiol. B, 92 (2008), 59-65). In contrast, when the PTPP derivatives prepared in Examples 2, 3, and 4 were used, the quantum yields of ^1O2 were 0.62, 0.69, and 0.73, respectively. This explains that the water-soluble porphyrins of the present invention have high photoexcitation efficiency and can thus be suitably used for PDT. The quantum yields of the ^1O2 production were determined by directly measuring the near infrared emission near 1,270 nm obtained by deactivation of the produced ^1O2.
# Specifically, an aqueous PTPP derivative solution (20 μM) was irradiated with a laser beam of 558 nm to excite the PTPP derivative, and the emission spectrum of the produced ^1O2 was measured. The quantum yield of the ^1O2 production was calculated by comparing the emission intensity at 1,270 nm obtained with respect to the aqueous PTPP derivative solution with the emission intensity at 1,270 nm obtained in the same manner as above with respect to methylene blue (quantum yield: 0.52).
# [5] = Partition from aqueous phase to water-immiscible organic solvent (octanol or chloroform); assay type: physicochemical; details: octanol or chloroform added to the aqueous solution and stirred; derivative promptly moved to the organic phase
# Protocol: A water-immiscible organic solvent, such as octanol or chloroform, was added to the aqueous solution of the PTPP derivative (Cw=17.3 mM, Co=0.245 mM) and stirred. This caused the PTPP derivative dissolved in the aqueous phase to promptly move to the organic phase.
# [6] = cited from earlier work
# [7] = saturated aqueous solution, allowed to stand for 3 days
Molecule,"Solubility Cw (solubility in water) [1, 7] [µM]",Solubility Co (solubility in dioxane) ([2]; solvent dioxane),Cad (concentration of PTPP derivative adsorbed on bacterial cell) [3] [mM],quantum yield of 1O2 [4],further results
CCCCCCCCCCCCCCCCCCOCCOCCOCCOCCO[P-]123(OCCOCCOCCOCCOCCCCCCCCCCCCCCCCCC)n4c5ccc4C(c4ccccc4)=C4C=CC(=[N+]41)C(c1ccccc1)=c1ccc(n12)=C(c1ccccc1)C1=[N+]3C(=C5c2ccccc2)C=C1.Cl [Example 8],7960,≧25 mM,–,–,–
CCOCCOCCO[P-]123(OCCOCCOCC)n4c5ccc4C(c4ccccc4)=C4C=CC(=[N+]41)C(c1ccccc1)=c1ccc(n12)=C(c1ccccc1)C1=[N+]3C(=C5c2ccccc2)C=C1.Cl [Example 3],13000,169 µM,27.5,0.69,–
COCCOCCO[P-]123(OCCOCCOC)n4c5ccc4C(c4ccccc4)=C4C=CC(=[N+]41)C(c1ccccc1)=c1ccc(n12)=C(c1ccccc1)C1=[N+]3C(=C5c2ccccc2)C=C1.Cl [Example 2],13900,140 µM,17.8,0.62,–
CCCCCCCCCCCCOCCOCCOCCOCCOCCOCCOCCOCCOCCO[P-]123(OCCOCCOCCOCCOCCOCCOCCOCCOCCOCCCCCCCCCCCC)n4c5ccc4C(c4ccccc4)=C4C=CC(=[N+]41)C(c1ccccc1)=c1ccc(n12)=C(c1ccccc1)C1=[N+]3C(=C5c2ccccc2)C=C1.Cl [Example 7],14460,≧25 mM,–,–,–
COCCOCCOCCO[P-]123(OCCOCCOCCOC)n4c5ccc4C(c4ccccc4)=C4C=CC(=[N+]41)C(c1ccccc1)=c1ccc(n12)=C(c1ccccc1)C1=[N+]3C(=C5c2ccccc2)C=C1.Cl [Example 1],17300,245 µM,–,–,partition to the organic phase [5]: high partition coefficient to the organic phase
CCCCOCCOCCO[P-]123(OCCOCCOCCCC)n4c5ccc4C(c4ccccc4)=C4C=CC(=[N+]41)C(c1ccccc1)=c1ccc(n12)=C(c1ccccc1)C1=[N+]3C(=C5c2ccccc2)C=C1.Cl [Example 4],5380,293 µM,74.6,0.73,–
CN(C)c1ccc2nc3ccc(=[N+](C)C)cc-3sc2c1 [methylene blue],–,–,–,–,quantum yield of 1O2 ([6]; methylene blue reference standard value): 0.52
CCCCCCOCCO[P-]123(OCCOCCCCCC)n4c5ccc4C(c4ccccc4)=C4C=CC(=[N+]41)C(c1ccccc1)=c1ccc(n12)=C(c1ccccc1)C1=[N+]3C(=C5c2ccccc2)C=C1.Cl [Example 6],–,–,142,–,Solubility Cw (solubility in water) [1]: 1110 µM; Solubility Co (solubility in dioxane) [2]: 242 µM
CCCCCCOCCOCCO[P-]123(OCCOCCOCCCCCC)n4c5ccc4C(c4ccccc4)=C4C=CC(=[N+]41)C(c1ccccc1)=c1ccc(n12)=C(c1ccccc1)C1=[N+]3C(=C5c2ccccc2)C=C1.Cl [Example 5],2070,244 µM,146,–,–
Photofrin,–,–,–,–,"quantum yield of 1O2 ([6]; Photofrin, from J. Photochem. Photobiol. B, 92 (2008), 59-65): 0.53"
